Key:
[1] = target: Human immunodeficiency virus type 1 protease (Human immunodeficiency virus 1) (UniProt Q72874); experiment: Concentration required for inhibitory activity against HIV-1 protease at concentration of 10e-5 M by using HKARVL-(pNO2)F-EAnLSNH2 as substrate; No significant activity
[2] = target: Human immunodeficiency virus type 1 protease (Human immunodeficiency virus 1) (UniProt Q72874); experiment: Concentration required for inhibitory activity against HIV-1 protease at concentration of 10e-5 M by using SQN-(pNO2)F-PIV as substrate; No significant activity
[3] = target: Human immunodeficiency virus type 1 protease (Human immunodeficiency virus 1) (UniProt Q72874); experiment: Concentration required for inhibitory activity against HIV-1 protease at concentration of 10e-5 M by using TLNFPIS AMC as substrate; No significant activity

Measured: Activity

CC(C)N(CC(=O)N(Cc1ccccc1)CC(O)CN(Cc1ccccc1)C(=O)CN(C(=O)CN(C(=O)OCc1ccccc1)C(C)C)C(C)C)C(=O)CN(C(=O)OCc1ccccc1)C(C)C
inactive: [1] No significant activity | [2] No significant activity | [3] No significant activity

CCCCCCCC/C=C\CCCCCCCC(=O)N(CC(=O)N(CC(=O)N(Cc1ccccc1)CC(O)CN(Cc1ccccc1)C(=O)CN(C(=O)CN(C(=O)CCCCCCC/C=C\CCCCCCCC)C(C)C)C(C)C)C(C)C)C(C)C
inactive: [1] No significant activity | [2] No significant activity | [3] No significant activity

CC(C)N(CC(=O)N(Cc1ccccc1)CC(O)CN(Cc1ccccc1)C(=O)CN(C(=O)CN(C(=O)OC(C)(C)C)C(C)C)C(C)C)C(=O)CN(C(=O)OC(C)(C)C)C(C)C
inactive: [1] No significant activity | [2] No significant activity | [3] No significant activity

CC(C)N(CC(=O)N(Cc1ccccc1)CC(O)CN(Cc1ccccc1)C(=O)CN(C(=O)CN(C(=O)CCC(=O)O)C(C)C)C(C)C)C(=O)CN(C(=O)CCC(=O)O)C(C)C
inactive: [1] No significant activity | [2] No significant activity | [3] No significant activity

CC(C)NCC(=O)N(CC(=O)N(Cc1ccccc1)CC(O)CN(Cc1ccccc1)C(=O)CN(C(=O)CNC(C)C)C(C)C)C(C)C
inactive: [1] No significant activity | [2] No significant activity | [3] No significant activity

Source: ChEMBL document CHEMBL1150476, “Peptoid mimics of a C2-symmetric inhibitor of the HIV-1 protease” (Bioorg Med Chem Lett, 1994)
